The text below walks through data of PMC8582824, “Targeting DDX3X Helicase Activity with BA103 Shows Promising Therapeutic Effects in Preclinical Glioblastoma Models” (Cancers, 2021).

The subject of one data set is U87 cells xenograft. In words: Subcutaneous U87 xenograft model of GBM. The settings on record: 50 mg/kg i.p. In kind it is in vivo, CD1 nude mice. As for the experimental part:
Male CD1 nude mice (Charles River, Milan, Italy) were maintained under the guidelines established by our Institution (University of L’Aquila), complying with the Declaration of Helsinki, national and international laws and policies (European Economic Community Council Directive 86/609; Italian Legislative Decree 4.03.2014 n.26, Gazzetta Ufficiale della Repubblica Italiana no. 61, 4 March 2014). Before any invasive manipulation, mice were anesthetized with a mixture of ketamine (25 mg/mL)/xylazine (5 mg/mL). Tumor grafts were obtained by injecting s.c. 1 × 10^6 U87 cells in 100 µL of 12 mg/mL Matrigel (Becton Dickinson, Franklin Lakes, NJ, USA). Tumor growth was monitored daily by measuring the average tumor diameter, and mice were divided into experimental groups when the tumor reached a volume of approximately 50 mm^3. The tumor volume was calculated according to the formula 4/3πr^3, with r representing the […]. BA103 was administered i.p. in a saline solution containing 10% v/v DMSO and 10% v/v TWEEN 80. Each mouse received 50 mg/kg BA103, or vehicle, three times per week. Previous experiments with the same settings have permitted choosing the endpoint of 21 days considering the maximum mean volume of tumors in control mice that was compatible with no signs of distress. […]
Next, we tested our compound on U87 cells in a xenograft model of GBM. […] During the experiment, tumor growth was monitored measuring tumor volume, and at the end point, 21 days after the start point, mice were euthanized, and tumors were recovered and measured. […] Tumor masses were also analyzed for the expression of DDX3X, and all xenografts resulted positive for DDX3X expression, from both control and treated groups, with a spotted staining pattern (Figure 9D).
Figure 9 Biological activity of BA103 in xenograft models of GBM. […] Tumor growth was monitored by measuring tumor volume (B), and at the end point, tumors were weighed, and the resulting mean values for each group are reported in the histogram (C). […] Mice were monitored for two months after U87 cells inoculation.

The subject of another data set is β-catenin. In words: β-catenin expression by Western blot and immunofluorescence. The data set is classed as cell-based. The settings on record: U87 and U251 cells, 48 h. As for the experimental part:
Cells were incubated for 15 min in lysis buffer containing 1% triton, 0.1% SDS, 2 mmol/L CaCl2, 10 mg/mL orthovanadate, and 1× protease inhibitors cocktail (Sigma-Aldrich, St. Louis, MO, USA). Forty micrograms of proteins were electrophoresed in 12% SDS-polyacrylamide gel, and then, the gel was placed onto a Trans-Blot Turbo mini nitrocellulose transfer pack and transferred using a Trans-Blot Turbo Transfer System (Bio-Rad Laboratories, Hercules, CA, USA). The membrane was incubated with […] primary antibody and then with […] horseradish peroxidase (HRP)-conjugated secondary antibodies (Santa Cruz Biotechnology, Dallas, TX, USA). […]
Cells grown on coverslips (2 × 10^4 cells/cm^2) were fixed in 4% w/v paraformaldehyde in PBS for 10 min at RT and permeabilized in PBS containing 0.1% v/v Triton X-100 for 5 min at RT. […] After extensive washings, cells were mounted with ProLong Gold antifade mounting medium (Life Technologies Corporation, Carlsbad, CA, USA) and observed by a fluorescence microscope equipped with a digital camera (AXIOPHOT, Carl Zeiss, Oberkochen, Germany).
To better characterize the antiproliferative effect of BA103, we performed further biological evaluation using GBM cell lines. The expression of DDX3X was evaluated in U87 and U251 cell lines by Western blot analysis in comparison with HepG2 cells, resulting in basally detectable mainly in U87 cells (Figure 6A). […]
(In western blotting, separated proteins are transferred to a membrane and probed.)

Take `CCCCc1cn(-c2ccc(NC(=O)Nc3ccccc3C(F)(F)F)cc2)nn1` [BA103, 1-(4-(4-Butyl-1H-1,2,3-triazol-1-yl)phenyl)-3-(2-(trifluoromethyl)phenyl)urea]: the “tumor growth (tumor volume) vs control” value in the data set on U87 cells xenograft (from the second week) was “reduction in tumor growth was evident”. Further, the “reduction of mean tumor mass with respect to control group” value in the data set on U87 cells xenograft (three times per week for two weeks, end point 21 days) is about 60%. Moreover, the “signs of distress in the receiving animal” value in the data set with U87 cells xenograft (two consecutive weeks) is recorded as “absence of any visible sign of distress”. Moreover, in the data set on β-catenin, the “expression of β-catenin” value is reported as “reduction in the expression of β-catenin”.
